Data as given in patent publication US5919768A, “Di- and trivalent small molecule selectin inhibitors” (Texas Biotechnology Corporation, priority 1998, dated 1999).

Assays:
L-selectin = molecular target: T1, L-selectin (Homo sapiens, UniProt P14151); assay: Selectin binding assay: inhibition of binding of L-selectin to sialyl-Lewis^x (cell-protein; glycolipid-protein assay also mentioned); details: for IC50: in vitro selectin assay
T1 construct: amino terminal lectin, EGF, and complement regulatory-like repeats (CR) 1 and 2; made in house; host or cells: SF21 insect cells, baculovirus (BakPAK)
T1 sequence (P14151 39-318): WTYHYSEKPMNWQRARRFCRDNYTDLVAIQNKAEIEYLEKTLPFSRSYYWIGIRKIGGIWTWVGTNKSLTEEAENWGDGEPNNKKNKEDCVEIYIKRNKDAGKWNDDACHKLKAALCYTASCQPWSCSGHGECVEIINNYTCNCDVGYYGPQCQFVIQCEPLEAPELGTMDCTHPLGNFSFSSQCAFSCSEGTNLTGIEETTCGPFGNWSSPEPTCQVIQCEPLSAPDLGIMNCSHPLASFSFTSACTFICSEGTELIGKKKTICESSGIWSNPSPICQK
Procedure: (§1) Compounds were assayed for their ability to inhibit the binding of E-, P-, and/or L-selectin to sialyl-Lewis^x.
(§2) The E-selectin binding assays involved assessing the ability of HL60 cells that express sialyl-Lewis^x and Lewis^x to purified E-selectin, P-selectin and L-selectin recombinant proteins (cell-protein assay). A similar binding assay utilizing purified glycolipids and purified L-selectin recombinant protein (glycolipid-protein) was used to assess L-selectin binding.
(§3) All selectin fusion cassettes were generated by PCR from the E-selectin cDNA purchased from R&D Systems (Minneapolis, Minn.), and from the P-selectin and L-selectin cDNAs that were PCR cloned from total RNA extracted from human placenta. The mouse IgG cDNA was cloned from PCR amplified cDNA generated from RNA extracted from the hybridoma cell line 402C10. All fusion cassettes were expressed from baculovirus vectors using the BakPAK method and SF21 cells purchased from Clonetech.
(§4) Recombinant fusion proteins were purified from baculovirus infected culture supernatants by immunoprecipitation using Dynal™ goat anti-mouse IgG coated magnetic beads. Mock beads were generated from uninfected SF21 culture supernatants.
(§5) HL60 cells (10^7 cells) were fluorescently labeled with calcein AMC-3099 (Molecular Probes) in RPMI 1640 with 10% fetal calf serum (FCS). The magnetic beads (7 μl, 4×10^6 beads/ml) were incubated in duplicate wells of a flexible 96 well microtiter plate along with 7 μl of compound at various concentrations and 7 μl of calcein-labeled HL60 cells. The plates were incubated for ten minutes at room temperature. The plate was then placed on a magnetic separator and incubated for 2 more minutes. While the assay plate remained on the separator, unbound HL60 cells were removed and the wells were washed twice with phosphate buffered saline (PBS) to remove any remaining unbound cells. The HL60 cells remaining bound to the beads were inspected by microscopy and then lysed by adding […] of a 1% solution of NP40 in PBS. Binding was quantitated fluorimetrically using a Millipore Cytofluor 2350 fluorimeter.

P-selectin = molecular target: T2, P-selectin (Homo sapiens, UniProt P16109); assay: Cell-protein assay: inhibition of binding of HL60 cells (expressing sialyl-Lewis^x) to P-selectin; details: HL60 cell binding to selectin fusion protein on magnetic beads
T2 construct: amino terminal lectin, EGF, and complement regulatory-like repeats (CR) 1 and 2; made in house; host or cells: SF21 insect cells, baculovirus (BakPAK)
T2 sequence (P16109 42-321): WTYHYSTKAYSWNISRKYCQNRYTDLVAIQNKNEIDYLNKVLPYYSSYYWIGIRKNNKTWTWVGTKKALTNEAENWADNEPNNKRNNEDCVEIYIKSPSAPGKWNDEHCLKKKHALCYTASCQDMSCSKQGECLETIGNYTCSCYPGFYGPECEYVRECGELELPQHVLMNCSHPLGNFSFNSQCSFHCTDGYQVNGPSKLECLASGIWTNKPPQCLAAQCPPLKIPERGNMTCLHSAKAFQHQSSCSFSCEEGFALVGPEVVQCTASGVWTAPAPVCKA
Procedure: as §1, §2, §3, §4, §5

E-selectin = molecular target: T3, E-selectin (Homo sapiens, UniProt P16581); assay: Cell-protein assay: inhibition of binding of HL60 cells (expressing sialyl-Lewis^x) to E-selectin; details: for IC50: HL60 cell binding to selectin fusion protein on magnetic beads
T3 construct: amino terminal lectin, EGF, and complement regulatory-like repeats (CR) 1 and 2; made in house; host or cells: SF21 insect cells, baculovirus (BakPAK)
T3 sequence (P16581 22-301): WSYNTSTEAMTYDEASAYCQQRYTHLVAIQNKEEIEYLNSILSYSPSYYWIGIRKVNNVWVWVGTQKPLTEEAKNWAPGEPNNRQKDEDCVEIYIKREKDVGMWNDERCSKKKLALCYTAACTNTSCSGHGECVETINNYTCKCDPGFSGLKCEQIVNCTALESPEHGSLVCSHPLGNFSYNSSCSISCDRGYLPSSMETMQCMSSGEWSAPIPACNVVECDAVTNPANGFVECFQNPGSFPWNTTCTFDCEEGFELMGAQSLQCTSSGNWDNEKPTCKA
Procedure: as §1, §2, §3, §4, §5

Row | SMILES | IC50 (L-selectin) | IC50 (P-selectin) | IC50 (E-selectin) | further results
1 | O=C(O)Cc1cccc(-c2cc(Cc3cccc(Cc4ccc(O[C@H]5O[C@H](CO)[C@@H](O)[C@H](O)[C@@H]5O)c(-c5cccc(CC(=O)O)c5)c4)c3)ccc2O[C@H]2O[C@H](CO)[C@@H](O)[C@H](O)[C@@H]2O)c1 [B-m] | 3000 µM | 220 µM | – | inhibition at 1000 µM (E-selectin; at 1 mM, read-out: E-Selectin % inhib.): 0%
2 | O=C(O)Cc1cccc(-c2cc(Cc3ccc(Cc4ccc(O[C@H]5O[C@H](CO)[C@@H](O)[C@H](O)[C@@H]5O)c(-c5cccc(CC(=O)O)c5)c4)cc3)ccc2O[C@H]2O[C@H](CO)[C@@H](O)[C@H](O)[C@@H]2O)c1 [B-p] | 3000 µM | 2000 µM | 2000 µM | –
3 | O=C(O)Cc1cccc(-c2cc(Cc3ccc(Oc4ccc(Cc5ccc(O[C@H]6O[C@H](CO)[C@@H](O)[C@H](O)[C@@H]6O)c(-c6cccc(CC(=O)O)c6)c5)cc4)cc3)ccc2O[C@H]2O[C@H](CO)[C@@H](O)[C@H](O)[C@@H]2O)c1 [C] | – | 700 µM | – | inhibition at 2000 µM (L-selectin; at 2 mM, read-out: L-Selectin % inhib.): 0%
4 | O=C(O)Cc1cccc(-c2cc(CCCSCCCSCCCc3ccc(O[C@H]4O[C@H](CO)[C@@H](O)[C@H](O)[C@@H]4O)c(-c4cccc(CC(=O)O)c4)c3)ccc2O[C@H]2O[C@H](CO)[C@@H](O)[C@H](O)[C@@H]2O)c1 [D] | – | 500 µM | – | inhibition at 2000 µM (E-selectin; at 2 mM, read-out: E-Selectin % inhib.): 29%
5 | O=C(O)COc1cccc(-c2cc(CCCCCCc3ccc(O[C@H]4O[C@H](CO)[C@@H](O)[C@H](O)[C@@H]4O)c(-c4cccc(OCC(=O)O)c4)c3)ccc2O[C@H]2O[C@H](CO)[C@@H](O)[C@H](O)[C@@H]2O)c1 [E] | 1400 µM | 540 µM | 3270 µM | –
6 | O=C(O)Cc1cccc(-c2cc(C(=O)CCCCC(=O)c3ccc(O[C@H]4O[C@H](CO)[C@@H](O)[C@H](O)[C@@H]4O)c(-c4cccc(CC(=O)O)c4)c3)ccc2O[C@H]2O[C@H](CO)[C@@H](O)[C@H](O)[C@@H]2O)c1 [F] | 3000 µM | 1000 µM | 1000 µM | –
7 | O=C(O)Cc1cccc(-c2cc(CCCC(=O)N3CCC(CCCC4CCN(C(=O)CCCc5ccc(O[C@H]6O[C@H](CO)[C@@H](O)[C@H](O)[C@@H]6O)c(-c6cccc(CC(=O)O)c6)c5)CC4)CC3)ccc2O[C@H]2O[C@H](CO)[C@@H](O)[C@H](O)[C@@H]2O)c1 [G] | – | 1000 µM | – | inhibition at 3000 µM (L-selectin; at 3 mM, read-out: L-Selectin % inhib.): 0%
8 | O=C(O)Cc1cccc(-c2cc(Cc3cc(Cc4ccc(O[C@H]5O[C@H](CO)[C@@H](O)[C@H](O)[C@@H]5O)c(-c5cccc(CC(=O)O)c5)c4)cc(Cc4ccc(O[C@H]5O[C@H](CO)[C@@H](O)[C@H](O)[C@@H]5O)c(-c5cccc(CC(=O)O)c5)c4)c3)ccc2O[C@H]2O[C@H](CO)[C@@H](O)[C@H](O)[C@@H]2O)c1 [H] | 500 µM | 200 µM | 700 µM | –
9 | O=C(O)Cc1cccc(-c2cc(C(=O)CSCc3cc(CSCC(=O)c4ccc(O[C@H]5O[C@H](CO)[C@@H](O)[C@H](O)[C@@H]5O)c(-c5cccc(CC(=O)O)c5)c4)cc(CSCC(=O)c4ccc(O[C@H]5O[C@H](CO)[C@@H](O)[C@H](O)[C@@H]5O)c(-c5cccc(CC(=O)O)c5)c4)c3)ccc2O[C@H]2O[C@H](CO)[C@@H](O)[C@H](O)[C@@H]2O)c1 [J] | 2000 µM | – | 4000 µM | –

More lines, main results first:

Row | IC50 (L-selectin) | IC50 (P-selectin) | IC50 (E-selectin) | SMILES | further results
10 | 2000 µM | – | – | O=C(O)Cc1cccc(-c2cc(CCCCc3ccc(O[C@H]4O[C@H](CO)[C@@H](O)[C@H](O)[C@@H]4O)c(-c4cccc(CC(=O)O)c4)c3)ccc2O[C@H]2O[C@H](CO)[C@@H](O)[C@H](O)[C@@H]2O)c1 [Compound A-4, 1,4-Bis-[3-(3-carboxymethylphenyl)-4-(2-α-D-mannopyranosyloxy)phenyl]butane] | –
11 | 300 µM | 300 µM | 400 µM | O=C(O)Cc1cccc(-c2cc(CCCCCc3ccc(O[C@H]4O[C@H](CO)[C@@H](O)[C@H](O)[C@@H]4O)c(-c4cccc(CC(=O)O)c4)c3)ccc2O[C@H]2O[C@H](CO)[C@@H](O)[C@H](O)[C@@H]2O)c1 [Compound A-5] | –
12 | – | 400 µM | 500 µM | O=C(O)Cc1cccc(-c2cc(CCCCCCCc3ccc(O[C@H]4O[C@H](CO)[C@@H](O)[C@H](O)[C@@H]4O)c(-c4cccc(CC(=O)O)c4)c3)ccc2O[C@H]2O[C@H](CO)[C@@H](O)[C@H](O)[C@@H]2O)c1 [Compound A-7] | –
13 | – | 1000 µM | 1000 µM | O=C(O)Cc1cccc(-c2cc(CCCCCCCCCc3ccc(O[C@H]4O[C@H](CO)[C@@H](O)[C@H](O)[C@@H]4O)c(-c4cccc(CC(=O)O)c4)c3)ccc2O[C@H]2O[C@H](CO)[C@@H](O)[C@H](O)[C@@H]2O)c1 [Compound A-9] | –
